Data taken from US8318491B2, “Method of differentiating hematopoietic stem cells into natural killer cells using YC-1 or IL-21” (Korea Research Institute of Bioscience and Biotechnology, priority 2007, dated 2012).

Columns and labels:
[1] = tested on: hematopoietic stem cells of cord blood / NK precursor cells (pNK); test: FACS analysis of CD56+ NK cell population during differentiation of cord blood hematopoietic stem cells into mature NK cells via NK precursor cells; assay type: cell-based, human; conditions: for NK cells (FACS analysis): in the presence of IL-15, FIGS. 10 and 11; for CD56+ NK cell population: cultured in the presence of IL-15, vs IL-15 alone
Method: Cord blood provided from Department of Obstetric & Gynecology, Konyang University Hospital, Taejon, Korea, for the purpose of study only was diluted in RPMI 1640 (GIBCO-BRL, USA) at the ratio of 2:1. The prepared cord blood was loaded on the upper part of Ficoll-Paque (Sigma, USA), followed by centrifugation ([…], 30 minutes) to separate mononuclear cells (MNC). Erythrocytes were eliminated from the obtained cells and the obtained mononuclear cells were marked with the hematopoietic stem cell marker ‘CD34 microbeads’. Then, CD34+ cells were separated by MS/RS column and MACS (Magnetic Activated Cell Sorter). The purity of the obtained CD34+ hematopoietic stem cells (referred as “HSC cells” hereinafter) was measured by FACS (BD Bioscience, Mountainview, Calif.), which was 92% (FIG. 1).
The HSC cells separated from cord blood in Example 1 were inoculated in a 12-well plate (Falcon, USA) containing the Myelocult complete medium (Stem cell Technology, CA) supplemented with 30 ng/ml of human […] (PeproTech, USA), 50 ng/ml of human Flt3L (FMS-like tyrosine kinase 3 ligand, PeproTech, USA), 5 ng/ml of human IL-7 (PeproTech, USA), and 10^−6 M of […] at the concentration of 1×10^6 cells/well, followed by culture for 14 days in a 37° C., 5% CO2 incubator. Three days later, half of the supernatant was replaced with a fresh medium containing cytokines having the same composition as the above. For the differentiation into mature NK cells (referred as “NK cells” hereinafter), HSC cells were recovered 14 days later and cultured again for 14 days in the presence of human IL-15 (30 ng/ml, PeproTech, USA). Three days later, half of the medium was replaced with a fresh medium containing cytokines having the same composition as the above. (FIG. 2). On the 28th day of culture, the purity of NK cells was measured by using anti-CD56 antibody and the expression of NK cell receptor was measured by flow cytometry (FACS) (FIG. 3).
(§1) To investigate the effect on NK cell differentiation of IL-21 known to promote differentiation and increase activity, IL-21 (20 ng/ml, PeproTech, USA) was treated during the process of differentiation from hematopoietic stem cells of cord blood into mature NK cells (mNK) through NK precursor cells (pNK). The cells were cultured in the presence of IL-15, followed by FACS analysis and ^51Cr release assay.
To investigate the effect on NK cell differentiation of YC-1 [3-(5′-hydroxymethyl-2′-furyl)-1-benzylindazole, formula 1] known as an anticancer agent functioning in suppressing HIF-1α activity to inhibit tumor cell growth, YC-1 (1 uM, Sigma) was treated during the process of differentiation from hematopoietic stem cells of cord blood into mature NK cells (mNK) through NK precursor cells (pNK). […]

NK cells = test: 51Cr release assay of the killing activity of differentiated mature NK cells; assay type: cell-based, human; conditions: cultured in the presence of IL-15
Method: as §1
To investigate the effect on NK cell differentiation of YC-1 [3-(5′-hydroxymethyl-2′-furyl)-1-benzylindazole, formula 1] known as an anticancer agent functioning in suppressing HIF-1α activity to inhibit tumor cell growth, YC-1 (1 uM, Sigma) was treated during the process of differentiation from hematopoietic stem cells of cord blood into mature NK cells (mNK) through NK precursor cells (pNK). The cells were cultured in the presence of IL-15, followed by FACS analysis and ^51Cr release assay.

| Compound | NK cells (FACS analysis) ([1]; YC-1 0.5 uM alone (low concentration)) | CD56+ NK cell population ([1]; YC-1 1 uM treated to pNK, FIGS. 7 and 8) | killing activity of NK cells (NK cells; YC-1 1 uM, E:T 5:1, FIG. 9) | NK cells (FACS analysis) ([1]; IL-21 10 ng/ml alone (low concentration)) | CD56+ NK cell population ([1]; IL-21 20 ng/ml treated to pNK, FIGS. 4 and 5) | killing activity of NK cells (NK cells; IL-21 20 ng/ml, E:T 2.5:1, FIG. 6) |
| --- | --- | --- | --- | --- | --- | --- |
| OCc1ccc(-c2nn(Cc3ccccc3)c3ccccc23)o1 [YC-1, 3-(5′-hydroxymethyl-2′-furyl)-1-benzylindazole] | slightly increased | increased | increased | – | – | – |
| IL-21: cytokine secreted by activated CD4+ T cells; amino acid sequence represented by SEQ. ID. NO: 1 (PeproTech) | – | – | – | slightly increased | increased | increased |
